Measurements from ChEMBL document CHEMBL5523764, “Discovery of NO Donor-Aurovertin Hybrids as Dual Ferroptosis and Apoptosis Inducers for Treating Triple Negative Breast Cancer” (J Med Chem, 2024).
Activity calls are given as the source filed them. No cut-off for these calls is given here.

How the values were obtained:
[1] = Cytotoxicity against human MCF-10A cells assessed as reduction in cell viability incubated for 72 hrs by MTT assay; format: toxicity, cell-based
[2] = Selectivity index, ratio of IC50 for cytotoxicity against human MCF-10A cells to IC50 for antiproliferative activity against human MDA-MB-231 cells; format: toxicity, cell-based; details: MCF-10A cells versus MDA-MB-231 cells, read-out: Ratio IC50
HCC1937 = test: Antiproliferative activity against human HCC1937 cells assessed as reduction in cell viability incubated for 72 hrs by MTT assay; format: functional, cell-based; details: HCC1937, 72 h
T47D = test: Antiproliferative activity against human T47D cells assessed as reduction in cell viability incubated for 72 hrs by MTT assay; format: functional, cell-based
MCF7 = test: Antiproliferative activity against human MCF7 cells assessed as reduction in cell viability incubated for 72 hrs by MTT assay; format: functional, cell-based; details: MCF7, 72 h
MDA-MB-231 [3] = test: Induction of NO release in human MDA-MB-231 cells assessed NO concentration by Griess reagent based assay; format: functional
MDA-MB-231 [4] = test: Induction of apoptosis in human MDA-MB-231 cells assessed as viable cells at 0.25 uM by Annexin V-FITC staining based flow cytometric analysis (reference value: 91.03%); format: functional; details: read-out: Activity
MDA-MB-231 [5] = test: Induction of apoptosis in human MDA-MB-231 cells assessed as late apoptotic cells at 0.25 uM by Annexin V-FITC staining based flow cytometric analysis (reference value: 0.02 %); format: functional
MDA-MB-231 [6] = test: Induction of apoptosis in human MDA-MB-231 cells assessed as necrotic cells at 0.25 uM by Annexin V-FITC staining based flow cytometric analysis (reference value: 7.98 %); format: functional
MDA-MB-231 [7] = test: Induction of apoptosis in human MDA-MB-231 cells assessed as late apoptotic cells at 0.5 uM by Annexin V-FITC staining based flow cytometric analysis (reference value: 0.02 %); format: functional
MDA-MB-231 [8] = test: Induction of apoptosis in human MDA-MB-231 cells assessed as necrotic cells at 0.5 uM by Annexin V-FITC staining based flow cytometric analysis (reference value: 7.98 %); format: functional
MDA-MB-231 [9] = test: Induction of apoptosis in human MDA-MB-231 cells assessed as early apoptotic cells at 1 uM by Annexin V-FITC staining based flow cytometric analysis (reference value: 0.17 %); format: functional
MDA-MB-231 [10] = test: Induction of apoptosis in human MDA-MB-231 cells assessed as upregulation of caspase-9 expression at 0.25 to 1 uM by Western blot analysis; format: functional, cell-based; details: dose 0.25-1 µM
Cell membrane = test: Induction of mitochondrial membrane loss in human MDA-MB-231 cells assessed as increase in ratio of green fluorescence at 0.25 to 1 uM incubated for 24 hrs by JC-1 staining based; format: cell membranes; details: dose 0.25-1 µM
MDA-MB-231 [11] = test: Inhibition of Bcl2 expression in human MDA-MB-231 cells at 0.25 to 1 uM by Western blot analysis; format: functional, cell-based; details: dose 0.25-1 µM
MDA-MB-231 [12] = test: Inhibition of Bcl-xl expression in human MDA-MB-231 cells at 0.25 to 1 uM by Western blot analysis; format: functional, cell-based; details: dose 0.25-1 µM
Mitochondria = test: Induction of ROS accumulation in mitochondria of human MDA-MB-231 cells at 0.25 to 1 uM by MitoSOX probe based flow cytometric analysis; format: functional; details: dose 0.25-1 µM
MDA-MB-231 [13] = test: Induction of ferroptosis in human MDA-MB-231 cells assessed as decrease in GPX4 expression by Western blot analysis; format: functional, cell-based; details: dose 0.25-1 µM
MDA-MB-231 [14] = test: Induction of ferroptosis in human MDA-MB-231 cells assessed as decrease in FTH1 expression by Western blot analysis; format: functional, cell-based; details: dose 0.25-1 µM
[15] = Toxicity in nude mouse xenografted with human MDA-MB-231 cells assessed as effect on body weight at 10 to 20 mg/kg, ip administered for 30 days; format: organism-based; details: in vivo, 720 h, dose 10-20 mg/kg, time 30 day
MDA-MB-231 [16] = test: Antitumor activity against human MDA-MB-231 cells xenografted in nude mouse assessed as reduction in tumor weight at 10 mg/kg, ip administered for 30 days relative to control; format: functional; parameters: scale not given: the % may be the effect or the level left; details: time 30 day
MDA-MB-231 [17] = test: Antitumor activity against human MDA-MB-231 cells xenografted in nude mouse assessed as reduction in tumor weight at 20 mg/kg, ip administered for 30 days relative to control; format: functional; parameters: scale not given: the % may be the effect or the level left; details: time 30 day
MDA-MB-231 [18] = test: Induction of ferroptosis in human MDA-MB-231 cells xenografted in nude mouse assessed as reduction in GPX4 level at 10 to 20 mg/kg, ip administered for 30 days by immunohistochemistry analysis; format: functional, organism-based; details: dose 10-20 mg/kg, time 30.0 day
MDA-MB-231 [19] = test: Inhibition of cell adhesion in human MDA-MB-231 cells assessed as rounded form appearance of cells at 0.02 to 0.5 uM incubated for 24 hrs by microscopic analysis; format: functional, cell-based; details: dose 0.02-0.5 µM
4T1 [20] = test: Inhibition of cell adhesion in mouse 4T1 cells assessed as rounded form appearance of cells at 0.02 to 0.5 uM incubated for 24 hrs by microscopic analysis; format: functional, cell-based; details: dose 0.02-0.5 µM
4T1 [21] = test: Antimigratory activity in mouse 4T1 cells assessed as inhibition of cell migration at 0.02 to 0.5 uM incubated for 24 hrs by scratch assay; format: functional, cell-based; details: dose 0.02-0.5 µM
4T1 [22] = test: Antiinvasive activity against mouse 4T1 cells assessed as inhibition of cell invasion at 0.5 uM measured after 24 hrs by crystal violet staining based transwell invasion assay relative to control; format: functional
4T1 [23] = test: Downregulation of phosphorylated JNK protein level at Thr183/185 residues in mouse 4T1 cells at 0.02 to 2.5 uM incubated for 24 hrs by Western blot analysis; format: functional, cell-based; details: dose 0.02-2.5 µM
4T1 [24] = test: Downregulation of phosphorylated AKT protein level at Thr308 residue in mouse 4T1 cells at 0.02 to 2.5 uM incubated for 24 hrs by Western blot analysis; format: functional, cell-based; details: dose 0.02-2.5 µM
[25] = Acute toxicity in female ICR mouse assessed as effect on body weight at <40 mg/kg, ip measured within 24 hrs; format: organism-based; details: in vivo

`CC[C@H]1O[C@@]2(C)[C@H](OC(C)=O)[C@@]1(C)O[C@@H](/C=C/C=C/C=C/c1oc(=O)cc(OC)c1C)[C@@H]2OC(=O)CCC(=O)OC/C=C/COc1no[n+]([O-])c1S(=O)(=O)c1ccccc1` showed an IC50 at 72 h [1] greater than 50 µM, a selectivity ratio [2] greater than 79 and an IC50 (HCC1937) of 0.87 µM. It also gave an IC50 (T47D) greater than 50 µM, an IC50 (MCF7) greater than 50 µM and an Activity (MDA-MB-231 [3]) of 4.87 µM. It also gave a viability at 0.25 µM (MDA-MB-231 [4]) of 80.8%, an Activity (MDA-MB-231 [5]) of 5.82% and an Activity (MDA-MB-231 [6]) of 0.37%. For the same compound, the Activity (MDA-MB-231 [7]) was 8.01%, the Activity (MDA-MB-231 [8]) was 0.44% and the Activity (MDA-MB-231 [9]) was 42.67%. For the same compound, the Activity (MDA-MB-231 [10]) was “Active”, the Activity (Cell membrane) was “Active” and the inhibition (MDA-MB-231 [11]) was “Active”. For the same compound, the inhibition (MDA-MB-231 [12]) was “Active”, the Activity (Mitochondria) was “Active” and the Activity (MDA-MB-231 [13]) was “Dose-Dependent Effect”. The Activity (MDA-MB-231 [14]) was “Dose-Dependent Effect”, the Activity [15] was “Non-Toxic” and the Activity (MDA-MB-231 [16]) was 86%. For the same compound, the Activity (MDA-MB-231 [17]) was 91%, the Activity (MDA-MB-231 [18]) was “Active” and the inhibition (MDA-MB-231 [19]) was “Active”. For the same compound, the inhibition (4T1 [20]) was “Active”, the Activity (4T1 [21]) was “Active” and the inhibition at 0.5 µM (4T1 [22]) was 62.8%. For the same compound, the Activity (4T1 [23]) was “Active”, the Activity (4T1 [24]) was “Active” and the Activity [25] was “Non-Toxic”.
